Data set [1] can be described thus: Pharmacokinetic properties in rats, i.v. or s.c. (Example 16). Type of data set: in vivo, SD rat. To be noted: Rat. As to the method:
(§1) The pharmacokinetic properties of exemplary peptides SEQ ID NO: 35 and SEQ ID NO: 24 were assessed in mice and rats.
(§2) The test compound was administered in a suitable buffer system (PBS buffer solution at pH 7.4, or DPBS solution) at concentrations of 0.05, 0.1, 0.5 or 1 mg/ml depending on the dose, species and administration volume. Female C57BI/6 mice and male SD rate were dosed 0.1 mg/kg or 0.3 mg/kg intravenously or subcutaneously. The animals were sacrificed, and blood samples were collected after 0.08, 0.25, 0.5, 1, 2, 4, 8, 24, 32, and 48 hours post-intravenous administration and 0.25, 0.5, 1, 2, 4, 8, 24, 32, and 48 hours post-subcutaneous administration, respectively. Plasma samples were analysed after protein precipitation via liquid chromatography mass spectrometry (LC/MS). Pharmacokinetic parameters and half-life were calculated using Phoenix-WinNonlin 8.1 using a non-compartmental model and linear trapezoidal interpolation calculation.

The nature of data set [2]: Pharmacokinetic properties in mice, i.v. or s.c. (Example 16). It is filed as in vivo, C57BI/6 mice. The following applies: female, C57BL/6, plasma, Mouse. As to the method:
as §1, §2

For the next data set, the target named is T1, endogenous human CRF2 (Homo sapiens, UniProt Q13324).
T1 construct: endogenous in cells; host or cells: NCI-H82
T1 sequence (Q13324 1-411): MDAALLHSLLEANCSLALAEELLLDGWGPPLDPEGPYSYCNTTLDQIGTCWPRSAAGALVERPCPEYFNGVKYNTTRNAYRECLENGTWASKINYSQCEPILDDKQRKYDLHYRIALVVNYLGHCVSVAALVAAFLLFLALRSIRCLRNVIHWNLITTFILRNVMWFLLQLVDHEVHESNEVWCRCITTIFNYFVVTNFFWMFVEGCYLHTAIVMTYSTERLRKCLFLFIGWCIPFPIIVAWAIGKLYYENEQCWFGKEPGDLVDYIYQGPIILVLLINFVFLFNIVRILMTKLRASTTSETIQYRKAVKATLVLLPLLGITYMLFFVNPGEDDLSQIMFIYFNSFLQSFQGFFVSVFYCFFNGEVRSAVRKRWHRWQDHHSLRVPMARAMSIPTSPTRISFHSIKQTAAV
Nature of the data set: cAMP agonist effect in NCI-H82 cells expressing endogenous human CRF2 (Example 10). The following applies: cAMP HTRF, 5 min activation. Type of data set: cell-based. As to the method: The agonist effect of the compounds was assessed in NCI-H82 cells expressing endogenous human CRF2.
NCI-H82 cells in suspension were plated in low-volume 384-well plates at a density of 30000 cells/well in 5 μl of test medium (RPMI+1 mM IBMX). The plates were briefly centrifuged at 800 rpm to allow the cell suspension to move to the bottom of the wells and then incubated for 2 hours at 37° C. in 5% CO2. 5 μl of test compounds at appropriate concentrations (10-11 to 3×10-7) diluted in test medium were then transferred in 384 wells plates. After 5 min of activation, the reaction was stopped by addition of HTRF revelation reagents with a multidrop dispenser. The two reagents were 5 μl/well of Anti-CAMP-cryptate diluted 20-fold in conjugate and lysis buffer and 5 μl/well of cAMP-D2 diluted 20-fold in conjugate and lysis buffer. After one-hour incubation at room temperature in the dark, the plates were read on a Clariostar apparatus.

The mark [3] stands for this setting: male, Sprague-Dawley (SD), plasma, iv, 0.1 mg/kg i.v.
Setting [4] is: male, Sprague-Dawley (SD), plasma, sc, 0.1 mg/kg s.c.

Starred links: 1 amine or outer side, 2 acyl side, 3 side chain; linkers in the order of their positions; H or OH if unused. Non-standard residues stand in square brackets, D forms with d. Residues, ends and D or L forms follow the SMILES beside them. Groups on a side chain read outwards from the residue. *: point of attachment. C18 diacid = O=C(O)CCCCCCCCCCCCCCCCC(=O)*; γGlu = O=C(O)[C@H](CCC(=O)[*:2])N[*:1]; AEEA = NCCOCCOCC(=O)O; Aib = CC(C)(N)C(=O)O

Data on two compounds can be found in patent publication US12679878B2, “CRF2 receptor agonists and their use in therapy” (SANOFI, priority 2020, dated 2026).

The term bioavailability denotes the share of a dose that reaches the circulation, judged against a reference dose that is usually intravenous. Read a low bioavailability as poor availability. The Cmax is the maximum level reached in the sampled fluid or tissue. The half-life is the time in which the quantity being followed falls by half. High values mean slow loss, low ones fast loss. For orientation: AUC(0-t) means exposure summed from dosing to a finite time, without extrapolation to infinity. Read a low AUC(0-t) as low exposure. In general, EC50 refers to the concentration at which the effect is half-maximal. Read a low EC50 as an effect from little substance.

Regarding `CC[C@H](C)[C@H](N)C(=O)N[C@H](C(=O)N[C@@H](CC(C)C)C(=O)N[C@@H](CO)C(=O)N[C@@H](CC(C)C)C(=O)N[C@@H](CC(=O)O)C(=O)N[C@H](C(=O)N1CCC[C@H]1C(=O)N[C@H](C(=O)N[C@@H](CCCCN)C(=O)N[C@@H](CC(C)C)C(=O)N[C@@H](CCCCNC(=O)COCCOCCNC(=O)COCCOCCNC(=O)CC[C@H](NC(=O)CCCCCCCCCCCCCCCCC(=O)O)C(=O)O)C(=O)N[C@@H](CCCCN)C(=O)N[C@H](C(=O)N[C@@H](CC(C)C)C(=O)N[C@@H](CC(C)C)C(=O)N[C@@H](CCC(=O)O)C(=O)N[C@@H](CCC(N)=O)C(=O)N[C@@H](CCC(=O)O)C(=O)N[C@@H](CCCCN)C(=O)N[C@@H](CCC(N)=O)C(=O)N[C@@H](CCCCN)C(=O)N[C@@H](CCCCN)C(=O)N[C@@H](CCC(N)=O)C(=O)N[C@@H](CCCNC(=N)N)C(=O)N[C@@H](CCC(=O)O)C(=O)N[C@@H](CCC(N)=O)C(=O)N[C@@H](C)C(=O)N[C@@H](CCC(=O)O)C(=O)N[C@H](C(=O)N[C@@H](CC(N)=O)C(=O)N[C@@H](CCCCN)C(=O)N[C@@H](CCC(N)=O)C(=O)N[C@H](C(=O)N[C@@H](CC(C)C)C(=O)N[C@@H](C)C(=O)N[C@@H](CCC(N)=O)C(=O)N[C@H](C(N)=O)C(C)C)[C@@H](C)CC)[C@@H](C)O)[C@@H](C)CC)[C@@H](C)CC)C(C)C)C(C)C` [compound 35] (H-IVLSLDVPIKLK([AEEA-AEEA-γGlu-C18 diacid])KILLEQEKQKKQREQAETNKQILAQV-NH2; N-terminus assumed), the “AUClast” value in data set [1] (0.1 mg/kg i.v.) was found to be 2790 ng·h/mL. The clearance in data set [1] (male, SD, plasma, iv, 0.1 mg/kg i.v., read-out: CI (converted)) was 0.597 mL/min/kg; in data set [2] (iv, 0.3 mg/kg i.v., read-out: CI (converted)), 0.21 mL/min/kg. This compound also showed a bioavailability in data set [1] (male, SD, plasma, sc, 0.1 mg/kg s.c.) of 45.8%. The Cmax in data set [1] (setting [3]) turned out to be 1900 ng/mL; in data set [1] (setting [4]), 131 ng/mL; in data set [2] (iv, 0.3 mg/kg i.v.), 4150 ng/mL; in data set [2] (sc, 0.1 mg/kg s.c.), 1410 ng/mL. Moreover, the half-life was 3 h in data set [1] (setting [3]); 6.1 h in data set [1] (setting [4]); 6.4 h in data set [2] (iv, 0.3 mg/kg i.v.); 5.5 h in data set [2] (sc, 0.1 mg/kg s.c.). For the same compound, the AUC(0-t) turned out to be 1200 ng·h/mL in data set [1] (setting [4]); 23700 ng·h/mL in data set [2] (iv, 0.3 mg/kg i.v.); 18500 ng·h/mL in data set [2] (sc, 0.1 mg/kg s.c.).
In turn, `CC[C@H](C)[C@H](N)C(=O)N[C@H](C(=O)N[C@@H](CC(C)C)C(=O)N[C@@H](CO)C(=O)N[C@@H](CC(C)C)C(=O)N[C@@H](CC(=O)O)C(=O)N[C@@H](C(=O)N1CCC[C@H]1C(=O)N[C@H](C(=O)N[C@@H](CCCCN)C(=O)N[C@@H](CC(C)C)C(=O)N[C@@H](CCCCNC(=O)COCCOCCNC(=O)COCCOCCNC(=O)CC[C@H](NC(=O)CCCCCCCCCCCCCCCCC(=O)O)C(=O)O)C(=O)N[C@@H](CCC(N)=O)C(=O)N[C@H](C(=O)N[C@@H](CC(C)C)C(=O)N[C@@H](CC(C)C)C(=O)N[C@@H](CCCCN)C(=O)N[C@@H](CCC(N)=O)C(=O)N[C@@H](CCC(=O)O)C(=O)N[C@@H](CCCNC(=N)N)C(=O)N[C@@H](CCC(N)=O)C(=O)N[C@@H](CCCCN)C(=O)NC(C)(C)C(=O)N[C@@H](CCC(N)=O)C(=O)N[C@@H](CCCNC(=N)N)C(=O)N[C@@H](CCC(N)=O)C(=O)N[C@@H](CCC(N)=O)C(=O)N[C@@H](C)C(=O)N[C@@H](CCC(=O)O)C(=O)N[C@@H](CCCCN)C(=O)N[C@@H](CC(N)=O)C(=O)N[C@@H](CCCCN)C(=O)N[C@@H](CCC(N)=O)C(=O)N[C@H](C(=O)N[C@@H](CC(C)C)C(=O)N[C@@H](C)C(=O)N[C@@H](CCC(N)=O)C(=O)N[C@H](C(N)=O)C(C)C)[C@@H](C)CC)[C@@H](C)CC)[C@@H](C)CC)C(C)C)C(C)C` [compound 135] (H-IVLSLD[dV]PIKLK([AEEA-AEEA-γGlu-C18 diacid])QILLKQERQK[Aib]QRQQAEKNKQILAQV-NH2; N-terminus assumed) displayed a half-maximal effective concentration (EC50) on endogenous human CRF2 of 110 nM.
